{
  "source": "paper PMC11098465",
  "about": "“A comparative analysis of peptide-delivered antisense antibiotics using diverse nucleotide mimics” (RNA, 2024)",
  "key": {"[1]": {"test_system": "AcpP::3xFLAG", "assay": "Western blot of AcpP::3xFLAG protein levels after ASO treatment", "format": "cell-based, Salmonella enterica serovar Typhimurium SL1344 AcpP::3xFLAG", "design": "key to AcpP protein reduction: +++: Effect strength is represented by additional (+) signs.; ++: Effect strength is represented by additional (+) signs.; Effect strength is represented by additional (+) signs", "details": "for AcpP protein levels after treatment (in words): KFF-ASO 5 µM, 30, 60, 120 min; for AcpP protein reduction: KFF-ASO constructs at 5 µM, 120 min, summary grade", "excerpt": "We have previously shown that PNAs targeting acpP lead to rapid depletion of the target transcript ([Hör et al. 2022]; [Popella et al. 2022]; [Jung et al. 2023]), although this is not a universal phenomenon and varies from transcript to transcript ([Popella et al. 2022]). In other words, an ASO might block target protein synthesis without substantially impacting mRNA levels. Therefore, we wanted to test if the different ASO modalities affect AcpP protein levels in cellulo despite their inability to deplete the acpP transcript. We took advantage of Salmonella expressing a FLAG-tagged AcpP (AcpP::3xFLAG) protein from its native locus. First, we exposed the bacterial cells to PMO and PNA for 30, 60, or 120 min (Fig. 9A) to determine the best time point for our analysis.\nSalmonella WT and SL1344 AcpP::3xFLAG were grown overnight in noncation adjusted MHB. Bacterial cultures were diluted 1:100, grown to OD600 0.5, and subsequently diluted to ∼10^6 cfu/mL in MHB. Then, 1.9 mL of each diluted bacterial solution was transferred into 5 mL low-binding tubes, preincubated at 37°C for 10 min, and treated with 100 µL of ASOs to adjust a final concentration of 5 µM. Water was added as negative control. The treatment with PNA and PMO was performed with aeration at 37°C and 220 rpm shaking for 30, 60, and 120 while for all other ASOs, they were treated for 120 min only. Subsequently, the cells were collected by centrifugation at 4°C and 16,000g for 5 min, resuspended in 1× Protein Loading Buffer (62.6 mM Tris–HCl pH 6.8, 2% SDS, 0.1 mg/mL bromophenol blue, 15.4 mg/mL DTT, 10% glycerol) and denatured at 95°C for 10 min.\nFor detection of AcpP::3xFLAG protein levels, samples were separated on a 12% SDS-PAA gel and transferred onto a nitrocellulose membrane via semi-dry western blotting. The membrane was probed with an α-FLAG antibody (Sigma; 1:1000 in 1× TBS-T containing 3% BSA) at 4°C overnight. After washing in 1× TBS-T, the membrane was incubated with a secondary HRP-conjugated antimouse antibody (Thermo Scientific; 1:5000 in 1× TBS-T containing 1% BSA) at RT for 1 h. Excessive antibody was removed by repeated wash-steps in 1× TBS-T, and the membrane was developed by an Amersham ECL Select Western Blotting Detection Reagent Kit (Cytiva)."}, "[2]": {"test_system": "Salmonella periplasm", "assay": "MALDI-TOF-based analysis of ASO-peptide conjugate uptake", "format": "cell-based", "design": "key to Uptake inside bacteria (MS): +++: Effect strength is represented by additional (+) signs.; ++: Effect strength is represented by additional (+) signs.; Effect strength is represented by additional (+) signs", "details": "15 min; for Detection in the periplasmic fraction (in words): 10 µM KFF-ASO conjugates, MALDI MS; for Uptake inside bacteria (MS): ASO conjugated to the carrier peptide, 10 µM, MALDI-TOF of periplasm, summary grade", "experimental": "Finally, to directly test if the ASO conjugates translocate into Salmonella, we used MALDI mass-spectrometry (MS) to identify ASO fragments in the bacterial periplasm after treatment with 10 µM KFF-ASO conjugates for 15 min (Table 2; Supplemental Figs. S7 and S8). […] This is in line with a study that reported that the KFF peptide is cleaved within the periplasm before translocation into the cytoplasm ([Yavari et al. 2021]). […] Importantly, none of the negASOs were detected in this subcellular fraction (Supplemental Fig. S8), likely explaining the lack of antibacterial effects against Salmonella.\nThe experiments were performed by modifying previously published protocols ([Yavari et al. 2021]). From an overnight culture of Salmonella, a second culture was inoculated (1:100) and grown to OD600 of 0.5 (corresponding to ∼2 × 10^8 cfu/mL). These bacterial cells were washed twice in MHB and resuspended in 95 µL of MHB with an additional incubation at 37°C for 5–10 min. Sterile ASO-peptide conjugates were prepared at concentrations of 200 µM. Five microliters of the 200 µM working solutions were added to 95 µL of bacteria in culture media, leading to a final concentration of the compounds of 10 µM. Five microliters of H2O was added as a negative control. The tubes were incubated at 37°C for 15 min with shaking at 300 rpm. Subsequently, they were centrifuged at 8000g for 5 min at 4°C. The supernatant was aspirated, and the pellet was washed with 0.01 M Tris-HCl before being resuspended in 200 µL of 0.01M Tris-HCl containing 0.5 M Sucrose, 150 µg/mL lysozyme, 10 mM EDTA and incubated at 37°C overnight. These tubes were then centrifuged at 2000g at 4°C for 10 min. The supernatant obtained represents the periplasm. The periplasm fragment was then mixed with 2,6-Dihydroxyacetophenone (DHAP) in ACN 1:1, spotted on a MALDI plate, and analyzed for MALDI-TOF-MS in a Bruker DaltonicsUltrafleXtreme Instrument. The experiment was performed two times, and data of one representative experiment are shown."}},
  "data": [
    {"substance": "PMO: phosphorodiamidate morpholino 10mer ASO, sequence CTCATACTCT, targeting acpP −5 to +5 (all phosphorodiamidate morpholino (PMO))", "values": [
      {"measurement": "AcpP protein levels after treatment (in words)", "setting": "[1]", "result": "gradual depletion of AcpP, albeit less pronounced than PNA"},
      {"measurement": "AcpP protein reduction", "setting": "[1]", "result": "+"},
      {"measurement": "Detection in the periplasmic fraction (in words)", "setting": "[2]", "result": "detected in the periplasmic fraction"},
      {"measurement": "Uptake inside bacteria (MS)", "setting": "[2]", "result": "+"},
      {"measurement": "Fragments detected", "setting": "[2]; periplasm, 10 µM KFF-ASO conjugate, MALDI-TOF-MS", "result": "only the PMO fragment was observed in the periplasm"}
    ]},
    {"substance": "PNA: peptide nucleic acid 10mer ASO, sequence CTCATACTCT, targeting acpP −5 to +5 (all peptide nucleic acid (PNA))", "values": [
      {"measurement": "AcpP protein levels after treatment (in words)", "setting": "[1]", "result": "depletion in AcpP levels can be observed from 60 min post-treatment onward"},
      {"measurement": "AcpP protein reduction", "setting": "[1]", "result": "++"},
      {"measurement": "Detection in the periplasmic fraction (in words)", "setting": "[2]", "result": "detected in the periplasmic fraction"},
      {"measurement": "Uptake inside bacteria (MS)", "setting": "[2]", "result": "+"}
    ]}
  ]
}
